These results are taken from patent US20140187556A1, “ANTI-AMYLOID COMPOUNDS AND METHODS” (Treventis Corporation, priority 2011, published 2014).

Data set [1] is described as follows: In vivo brain/plasma ratio determination in CD-1 mice. As to conditions: for Mean brain/plasma ratio: 2 hours; for maximum brain/plasma ratio: day 5, once daily i.p. dosing. As to the method: Five groups of CD-1 mice (both sexes; individual weights 20 to 40 g) were dosed intraperitoneally with different doses of TRV 1067 (0, 3, 10, 30, and 100 mg/kg). DMSO (100%) was used as a vehicle. Animals had ad libitum access to rodent chow. Some animals were euthanized 2 hours after dosing on Day 1 and brains were harvested. Blood (0.15 mL) was collected 15 minutes after dosing and at sacrifice. The remaining animals were dosed once daily for 5 consecutive days. Blood samples were collected 15 minutes after dosing on Day 1. On Day 5, blood samples were collected 15 minutes and 2 hours after dosing and brains were harvested.
Standards were prepared in CD-1 mouse plasma containing sodium heparin as an anticoagulant and CD-1 mouse brain homogenate. An eight-point calibration curve was prepared at concentrations of 1000, 500, 100, 50, 10, 5, 1, and 0.5 ng/mL by serial dilution. Standard samples were treated identically to the study samples. Brain samples were homogenized with a Virsonic 100 ultrasonic homogenizer. Each brain sample was first weighed, and then an appropriate volume of 20:80 methanol:water was added to make a 4 mL/1 g sample. Samples were then homogenized on ice, and stored frozen until analysis. Plasma and brain homogenate samples were extracted via acetonitrile precipitation on a Tomtec Quadra 96-Model 320 liquid handling system in a 96-well plate format. A Perkin Elmer series 200 micropumps and LEAP Autosampler high-performance liquid chromatograph (HPLC) was used with a 0.2% formic acid/water/acetonitrile solvent system for separation purposes. The compound was quantitated using a PE Sciex API3000 mass spectrometer connected to the HPLC; negative polarity was used, with TRV 1067 analyzed using ion settings of 347.1 mass/charge ratio for the precursor and 212.1 for the product ions, respectively. Warfarin was used in negative polarity (307.1 precursor, 250.0 product) as an internal standard.

Data set [2] concerns MDR1-MDCK cell monolayers. The data set can be described thus: Blood-brain barrier penetration potential using MDR1-MDCK cell monolayers. The format is in vitro ADME. As to conditions: 5 μM, 120 min. An excerpt: (§1) This assay is used to determine the blood-brain barrier (BBB) penetration potential of a test compound using MDR1-MDCK cell monolayers. Further details on this method may be found in Taub M E, et al., Functional assessment of multiple Pglycoprotein (P-gp) probe substrates: Influence of cell line and modulator concentration on P-gp activity. Drug Metab Dispos. 2005 November; 33(11): 1679-87 and Wang Q, et al., Evaluation of the MDR-MDCK cell line as a permeability screen for the blood-brain barrier. Int J. Pharm. 2005 Jan. 20; 288(2):349-59; each of which is hereby incorporated by reference. Test compound was formulated in 300 μL of DMSO at 10 mM and diluted to 5 μM in HBSSg with maximum DMSO concentration not greater than 1%. Confluent monolayers of MDR1-MDCK cells, 7 to 11 days old, were used. A receiver well, having apical and basolateral sides at pH 7.4, was used with 1% BSA in modified Hanks buffer (HBSSg). Two monolayers were dosed with test compound in each direction (N=2). Apical side dosing was used for A-B assessment and basolateral side was used for B-A assessment; taken together, this information provides a bidirectional permeability potential. Apical and basolateral sides were sampled at 120 minutes and concentrations of test compound were determined using an LC-MS/MS method with a minimum 4 point calibration curve. Apparent permeability (Papp) in both directions (A-B and B-A) was calculated, as was the efflux ratio (Papp B-A)/(Papp A-B).

The target of the next data set is T1, Aβ40 (Homo sapiens, UniProt P05067).
T1 construct: pre-treated Aβ40 (40 μM in 20 mM Tris, pH 7.4)
Put plainly: Thioflavin T (ThT) Aβ aggregation assay. The format is biochemical. The following applies: 20 μM Aβ40, 37 degrees C. The protocol: Aβ40 (1.0 mg) was pre-treated in a 1.5 mL microfuge tube with HFIP (1 mL) and sonicated for 20 min to disassemble any pre-formed Aβ aggregates. The HFIP was removed with a stream of argon and the Aβ dissolved in Tris base (5.8 mL, 20 mM, pH ˜10). The pH was adjusted to 7.4 with concentrated HCl (−10 μL) and the solution filtered using a syringe filter (0.2 μm) before being used.
The kinetic ThT assay for Aβ aggregation is similar to that of Chalifour et al (Chalifour et al, 2003, J. Biol. Chem. 278:34874-81). Briefly, pre-treated Aβ40 (40 μM in 20 mM Tris, pH 7.4), was diluted with an equal volume of 8 μM ThT in Tris (20 mM, pH 7.4, 300 mM NaCl). Aliquots of Aβ/ThT (200 μL) were added to wells of a black polystyrene 96-well plate, followed by 2 μL of a compound in DMSO (variable concentration), or DMSO alone (controls). Incubations were performed in triplicate and were taken to contain 20 μM Aβ, various concentration of compound in 20 mM Tris, pH 7.4, 150 mM NaCl, 1% DMSO. Plates were covered with clear polystyrene lids and incubated at 37 degrees C. in a Tecan Genios microplate reader. Fluorescence readings (λex=450 nm, λem=480 nm) were taken every 15 min., after first shaking at high intensity for 15 s and allowing to settle for 10 s before each reading. Active compounds attenuated the increase in fluorescence over time that occurred in controls.

Data set [3] in a line: Metabolic stability in mouse liver microsomes. It is filed as in vitro ADME. As to conditions: 1 μM compound, 0.5 mg/mL microsomal protein, 1 mM NADPH. As to the method: This assay is used to determine the percent remaining and intrinsic clearance of a test compound incubated with pooled mouse liver microsomes in the presence of NADPH. Further details on this method may be found in Jeffrey P, et al., Utility of metabolic stability screening: comparison of in vitro and in vivo clearance. enobiotica. 2001 August-September; 31(8-9):591-8 and Lin J H, et al., Role of pharmacokinetics and metabolism in drug discovery and development. Pharmacol Rev. 1997; 49(4):403-49; each of which is hereby incorporated by reference. Test compound was formulated in 300 μL of DMSO at 10 mM and was diluted to 1 μM with final concentration of organic solvent <0.25% for the experiment. Pooled liver microsomes were prepared from male mice, with 1 mM NADPH. Test compound was incubated at 37 degrees Celsius in buffer containing 0.5 mg/mL microsomal protein; the reaction was initiated by adding cofactors and sampled at 0, 10, 20, 30, and 60 minutes. A positive control (5 μM testosterone) was incubated and initiated in parallel for quality control. Samples were analyzed using an LTQ-Orbitrap XL mass spectrometer; HRMS was used to determine the peak area response ratio (peak area corresponding to test compound or control divided by that of an analytical internal standard) without running a standard curve.
Results were reported for selected compounds in the table of Example 1, as % test compound remaining after 60 minutes. Compounds which have less than about 5% remaining are not considered to be metabolically stable in mouse liver microsomes, while compounds with more than about 5% remaining are considered to be metabolically stable in mouse liver microsomes.
A general note: Liver microsomes are a subcellular fraction often used to study metabolism.

A short description of data set [4]: Blood-brain barrier penetration potential using MDR1-MDCK cell monolayers. It is filed as in vitro ADME. As to conditions: dog; for Papp A→B at 120 min, 5 µM: MDCK-MDR1, apical dosing, pH 7.4, read-out: Papp A-B × 10^−6 cm/s; for Papp B→A at 120 min, 5 µM: MDCK-MDR1, basolateral dosing, pH 7.4, read-out: Papp B-A × 10^−6 cm/s; for efflux ratio at 120 min, 5 µM: MDCK-MDR1, pH 7.4, read-out: Efflux ratio (Papp B-A)/(Papp A-B).
Description: as §1

Another data set has as its target Tau441 (Homo sapiens, UniProt P10636). Put plainly: Thioflavin S (ThS) tau aggregation assay. The following applies: FIG. 1; for inhibition at 20 µM: 20 μM compound; for IC50: read-out: tau aggregation IC50 (suggested by inhibition at 20 μM). The format is biochemical. As to the method: Analogous to the method of Example 1, the ability of compounds to inhibit the aggregation of tau was performed by substituting […] with tau and Thioflavin T with Thioflavin S.

The target of the next data set is alpha-synuclein (Homo sapiens, UniProt P37840). Put plainly: alpha-synuclein aggregation assay (ThT, analogous to Example 1). It is filed as biochemical. The following applies: 10 μM compound. The protocol: Analogous to the method of Example 1, the ability of compounds to inhibit the aggregation of alpha-synuclein was performed by substituting Aβ with alpha-synuclein.

Tau441, sequence (P10636 1-441 isoform P10636-8): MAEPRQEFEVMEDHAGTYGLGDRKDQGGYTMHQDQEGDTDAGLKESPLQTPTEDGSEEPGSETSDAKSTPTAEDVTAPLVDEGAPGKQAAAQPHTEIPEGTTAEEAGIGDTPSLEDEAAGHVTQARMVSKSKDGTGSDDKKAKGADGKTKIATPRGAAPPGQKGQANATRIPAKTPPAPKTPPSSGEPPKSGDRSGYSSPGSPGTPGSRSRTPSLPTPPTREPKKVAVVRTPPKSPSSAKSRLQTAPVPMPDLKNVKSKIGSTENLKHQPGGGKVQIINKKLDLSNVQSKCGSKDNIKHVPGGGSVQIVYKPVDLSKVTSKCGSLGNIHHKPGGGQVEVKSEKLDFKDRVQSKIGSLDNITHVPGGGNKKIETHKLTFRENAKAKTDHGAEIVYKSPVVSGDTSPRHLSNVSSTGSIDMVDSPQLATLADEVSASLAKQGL
T1 sequence (P05067 672-711 limits assumed): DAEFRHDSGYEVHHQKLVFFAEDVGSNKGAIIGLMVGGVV

Regarding `O=C(O)c1cccc(-c2ccc([N+](=O)[O-])c(NCc3ccccc3)c2)c1` [TRV 1067, 3′-(benzylamino)-4′-nitrophenyl-3-carboxylic acid], the “blood-brain barrier crossing in vivo” value in data set [1] (CD-1 mice, 3-100 mg/kg i.p.) is given as “did not appreciably cross the blood-brain barrier”. Moreover, the Mean brain/plasma ratio result in data set [1] (female CD-1 mice, Day 1, 3 mg/kg intraperitoneally) was “too low to determine”; in data set [1] (female CD-1 mice, Day 1, 100 mg/kg intraperitoneally), 0.051; in data set [1] (male CD-1 mice, Day 1, 3 mg/kg intraperitoneally), “too low to determine”; in data set [1] (male CD-1 mice, Day 1, 100 mg/kg intraperitoneally) it was 0.168. For the same molecule, the maximum brain/plasma ratio in data set [1] (female CD-1 mice) was determined as 0.067; in data set [1] (male CD-1 mice), 0.256. The “Efflux ratio (Papp B-A)/(Papp A-B)” value in data set [2] was 1.8. Further, the “Papp A-B × 10^−6 cm/s” value in data set [2] (apical dosing, pH 7.4) is given as 42.1 10^−6 cm/s. For the same molecule, the “Papp B-A × 10^−6 cm/s” value in data set [2] (basolateral dosing, pH 7.4) is 74.9 10^−6 cm/s.
Take `NS(=O)(=O)c1cccc(-c2ccc([N+](=O)[O-])c(NCc3ccccc3)c2)c1` [TRV 1122, 3′-(benzylamino)-4′-nitro-[1,1′-biphenyl]-3-sulfonamide]: the IC50 (usually the point on the concentration scale where inhibition reaches its midpoint) against Aβ40 is 14.1 ± 3.07 µM. The “Stability in mouse liver microsomes (% test compound remaining after 60 min)” value in data set [3] was 1.5%. For the same molecule, in data set [4], the Papp A→B at 120 min, 5 µM turned out to be 27.5 ×10⁻⁶ cm/s; the Papp B→A at 120 min, 5 µM turned out to be 52.5 ×10⁻⁶ cm/s; the efflux ratio at 120 min, 5 µM is 1.9.
As to `O=C(c1ccccc1)N1CCN(c2ccc(F)c(Nc3ccccc3)c2)CC1` [TRV 1095, (4-(4-fluoro-3-(phenylamino)phenyl)piperazin-1-yl)(phenyl)methanone], at Tau441, the inhibition (commonly the drop in the measured response relative to a control, in per cent) at 20 µM is approximately 20% and the 50% inhibitory concentration (IC50) is more than 20 µM. The midpoint of inhibition on Aβ40, the IC50, lay at 15.9 ± 7.8 µM. Also, in data set [3], the “Stability in mouse liver microsomes (% test compound remaining after 60 min)” value is less than 1.0%.
In the case of `O=[N+]([O-])c1ccc(-c2cccc(-c3nnn[nH]3)c2)cc1NCc1ccccc1` [TRV 1120, N-benzyl-4-nitro-3′-(1H-tetrazol-5-yl)-[1,1′-biphenyl]-3-amine], at Aβ40, the midpoint of inhibition, the IC50, lay at 1.34 ± 0.22 µM. For the same molecule, the “inhibition of alpha-synuclein aggregation” value against alpha-synuclein was “inhibit alpha-synuclein aggregation at 10 μM”. Moreover, the “Stability in mouse liver microsomes (% test compound remaining after 60 min)” value in data set [3] came out at 60%. In data set [4], the Papp A→B at 120 min, 5 µM turned out to be 38.3 ×10⁻⁶ cm/s; the Papp B→A at 120 min, 5 µM was found to be 47.4 ×10⁻⁶ cm/s; the efflux ratio at 120 min, 5 µM stood at 1.2.
In turn, `CN(C)C(=O)c1cccc(-c2ccc([N+](=O)[O-])c(NCc3ccccc3)c2)c1` [TRV 1102, 3′-(benzylamino)-N,N-dimethyl-4′-nitrobiphenyl-3-carboxamide] had an IC50 on Aβ40 of 4.11 ± 1.2 µM. In addition, in data set [3], the “Stability in mouse liver microsomes (% test compound remaining after 60 min)” value is less than 1.0%.
Taken in the same sequence, the figures for `CN1CCN(C(=O)c2cccc(-c3ccc([N+](=O)[O-])c(NCc4ccccc4)c3)c2)CC1` [TRV 1115, (3′-(benzyl amino)-4′-nitrobiphenyl-3-yl)(4-methylpiperazin-1-yl)methanone] were 2.67 ± 0.1 µM and less than 1.0%.
On to `O=[N+]([O-])c1ccc(-c2ccc(-c3nn[nH]n3)cc2)cc1NCc1ccccc1` [TRV 1126, N-benzyl-4-nitro-4′-(2H-tetrazol-5-yl)-[1,1′-biphenyl]-3-amine], for which, on Aβ40, the IC50 was found to be 1.1 ± 0.33 µM. Further, in data set [3], the “Stability in mouse liver microsomes (% test compound remaining after 60 min)” value was 41%. For the same molecule, in data set [4], the Papp A→B at 120 min, 5 µM amounted to 34.1 ×10⁻⁶ cm/s; the Papp B→A at 120 min, 5 µM came to 47.8 ×10⁻⁶ cm/s; the efflux ratio at 120 min, 5 µM was 1.4.
Turning to `O=C(c1ccccc1)N1CCN(c2ccc(C(F)(F)F)c(N3CCCC3)c2)CC1` [TRV 1158, phenyl(4-(3-(pyrrolidin-1-yl)-4-(trifluoromethyl)phenyl)piperazin-1-yl)methanone], at Tau441, the inhibition at 20 µM is approximately 20% and the IC50 was more than 20 µM. For the same molecule, half-maximal inhibition at Aβ40 (IC50) required 42.02 ± 0.12 µM.
As for `O=C(c1ccccc1)N1CCN(c2ccc([N+](=O)[O-])c(N3CCCC3)c2)CC1` [TRV 1141, (4-(4-nitro-3-(pyrrolidin-1-yl)phenyl)piperazin-1-yl)(phenyl)methanone], on Aβ40, the half-inhibitory concentration (IC50) was approximately 10 µM. The “Stability in mouse liver microsomes (% test compound remaining after 60 min)” value in data set [3] is less than 1.0%.
